Data: PubChem BioAssay (NCI)
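Growth conditions: 96-well plates. Treatment: test compound, 48 hours, 5 concentrations. Analysis: linear interpolation between bracketing concentrations; unreached endpoints set to highest concentration. TGI marks complete inhibition of growth.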

Tests used:
Test in all cases: NCI anticancer screen, dose series, 48 h
UACC-62 melanoma = test system: UACC-62 melanoma
UACC-257 melanoma = test system: UACC-257 melanoma
SW-620 colon = test system: SW-620 colon
M14 melanoma = test system: M14 melanoma
RXF 393 renal = test system: RXF 393 renal
MALME-3M melanoma = test system: MALME-3M melanoma
A549 NSCLC = test system: A549 NSCLC
SNB-19 CNS = test system: SNB-19 CNS
HCT-15 colon = test system: HCT-15 colon
NCI-H23 lung = test system: NCI-H23 lung
HT29 colon = test system: HT29 colon
CCRF-CEM leukemia = test system: CCRF-CEM leukemia
HCT-116 colon = test system: HCT-116 colon
OVCAR-5 ovarian = test system: OVCAR-5 ovarian
K-562 leukemia = test system: K-562 leukemia
EKVX NSCLC = test system: EKVX NSCLC
SN12C renal = test system: SN12C renal
786-0 renal = test system: 786-0 renal
HCC-2998 colon = test system: HCC-2998 colon
MOLT-4 leukemia = test system: MOLT-4 leukemia
TK-10 renal = test system: TK-10 renal
CAKI-1 renal = test system: CAKI-1 renal
IGROV1 ovarian = test system: IGROV1 ovarian
SF-295 CNS = test system: SF-295 CNS
COLO 205 colon = test system: COLO 205 colon
U251 CNS = test system: U251 CNS
SR leukemia = test system: SR leukemia
T-47D breast = test system: T-47D breast
OVCAR-8 ovarian = test system: OVCAR-8 ovarian
HL-60(TB) leukemia = test system: HL-60(TB) leukemia
A498 renal = test system: A498 renal
HOP-92 NSCLC = test system: HOP-92 NSCLC
NCI-H460 lung = test system: NCI-H460 lung
MCF7 breast = test system: MCF7 breast
MDA-N = test system: MDA-N
SK-MEL-5 melanoma = test system: SK-MEL-5 melanoma
SK-OV-3 ovarian = test system: SK-OV-3 ovarian
SNB-75 CNS = test system: SNB-75 CNS
KM12 colon = test system: KM12 colon
HOP-62 NSCLC = test system: HOP-62 NSCLC
MDA-MB-435 = test system: MDA-MB-435
OVCAR-4 ovarian = test system: OVCAR-4 ovarian
BT-549 breast = test system: BT-549 breast
NCI/ADR-RES ovarian = test system: NCI/ADR-RES ovarian
NCI-H522 lung = test system: NCI-H522 lung
MDA-MB-231 breast = test system: MDA-MB-231 breast
PC-3 prostate = test system: PC-3 prostate
SK-MEL-2 melanoma = test system: SK-MEL-2 melanoma
SF-268 CNS = test system: SF-268 CNS
SK-MEL-28 melanoma = test system: SK-MEL-28 melanoma
NCI-H226 lung = test system: NCI-H226 lung
ACHN renal = test system: ACHN renal
UO-31 renal = test system: UO-31 renal
RPMI-8226 leukemia = test system: RPMI-8226 leukemia
DU-145 prostate = test system: DU-145 prostate
OVCAR-3 ovarian = test system: OVCAR-3 ovarian
LOX IMVI melanoma = test system: LOX IMVI melanoma
HS 578T breast = test system: HS 578T breast
SF-539 CNS = test system: SF-539 CNS

CC/C=C/C[C@H](O[Si](C)(C)C(C)(C)C)[C@H]1C[C@H]2O[C@H]([C@@H](O)C#C[Si](C)(C)C)C[C@H]2O1
TGI (UACC-62 melanoma): 34.1 µM | TGI (UACC-257 melanoma): 23.2 µM | TGI (SW-620 colon): 37.7 µM | TGI (M14 melanoma): 24.7 µM | TGI (RXF 393 renal): 20.4 µM | TGI (MALME-3M melanoma): 24.8 µM | TGI (A549 NSCLC): 21.8 µM | TGI (SNB-19 CNS): 26.9 µM | TGI (HCT-15 colon): 26.6 µM | TGI (NCI-H23 lung): 24.7 µM | TGI (HT29 colon): 24.4 µM | TGI (CCRF-CEM leukemia): > 100 µM | TGI (HCT-116 colon): 24.5 µM | TGI (OVCAR-5 ovarian): 27.3 µM | TGI (K-562 leukemia): > 44.3 µM | TGI (EKVX NSCLC): 25.9 µM | TGI (SN12C renal): 17.2 µM | TGI (786-0 renal): 28 µM | TGI (HCC-2998 colon): 35.1 µM | TGI (MOLT-4 leukemia): > 48.6 µM | TGI (TK-10 renal): 30 µM | TGI (CAKI-1 renal): 24.2 µM | TGI (IGROV1 ovarian): 27.5 µM | TGI (SF-295 CNS): 27.5 µM | TGI (COLO 205 colon): 28.2 µM | TGI (U251 CNS): 30.2 µM | TGI (SR leukemia): 7.66 µM | TGI (T-47D breast): 23.2 µM | TGI (OVCAR-8 ovarian): 27.9 µM | TGI (HL-60(TB) leukemia): > 100 µM | TGI (A498 renal): 32.8 µM | TGI (HOP-92 NSCLC): 22.4 µM | TGI (NCI-H460 lung): 36 µM | TGI (MCF7 breast): 20.9 µM | TGI (MDA-N): 24.8 µM | TGI (SK-MEL-5 melanoma): 20 µM | TGI (SK-OV-3 ovarian): 28.9 µM | TGI (SNB-75 CNS): 31 µM | TGI (KM12 colon): 39.2 µM | TGI (HOP-62 NSCLC): 30.4 µM | TGI (MDA-MB-435): 25.3 µM | TGI (OVCAR-4 ovarian): 23.1 µM | TGI (BT-549 breast): 33.4 µM | TGI (NCI/ADR-RES ovarian): 26.3 µM | TGI (NCI-H522 lung): 11.9 µM | TGI (MDA-MB-231 breast): 30.2 µM | TGI (PC-3 prostate): 26.2 µM | TGI (SK-MEL-2 melanoma): 31.3 µM | TGI (SF-268 CNS): 27.4 µM | TGI (SK-MEL-28 melanoma): 29.7 µM | TGI (NCI-H226 lung): 20.6 µM | TGI (ACHN renal): 29 µM | TGI (UO-31 renal): 27.6 µM | TGI (RPMI-8226 leukemia): 37.6 µM | TGI (DU-145 prostate): 28.3 µM | TGI (OVCAR-3 ovarian): 30.2 µM | TGI (LOX IMVI melanoma): 22.1 µM | TGI (HS 578T breast): 32.4 µM

CC1=NC(C)(C)[N+]([O-])=C1
TGI (UACC-62 melanoma): > 10 µM | TGI (UACC-257 melanoma): > 10 µM | TGI (SW-620 colon): > 10 µM | TGI (M14 melanoma): > 10 µM | TGI (SF-539 CNS): > 10 µM | TGI (RXF 393 renal): > 10 µM | TGI (MALME-3M melanoma): > 10 µM | TGI (A549 NSCLC): > 10 µM | TGI (SNB-19 CNS): > 10 µM | TGI (HCT-15 colon): > 10 µM | TGI (NCI-H23 lung): > 10 µM | TGI (HT29 colon): > 10 µM | TGI (CCRF-CEM leukemia): > 10 µM | TGI (HCT-116 colon): > 10 µM | TGI (OVCAR-5 ovarian): > 10 µM | TGI (K-562 leukemia): > 10 µM | TGI (EKVX NSCLC): > 10 µM | TGI (SN12C renal): > 10 µM | TGI (786-0 renal): > 10 µM | TGI (HCC-2998 colon): > 10 µM | TGI (MOLT-4 leukemia): > 10 µM | TGI (TK-10 renal): > 10 µM | TGI (CAKI-1 renal): > 10 µM | TGI (IGROV1 ovarian): > 10 µM | TGI (SF-295 CNS): > 10 µM | TGI (COLO 205 colon): > 10 µM | TGI (U251 CNS): > 10 µM | TGI (SR leukemia): > 10 µM | TGI (T-47D breast): > 10 µM | TGI (OVCAR-8 ovarian): > 10 µM | TGI (HL-60(TB) leukemia): > 10 µM | TGI (A498 renal): > 10 µM | TGI (HOP-92 NSCLC): > 10 µM | TGI (NCI-H460 lung): > 10 µM | TGI (MCF7 breast): > 10 µM | TGI (MDA-N): > 10 µM | TGI (SK-MEL-5 melanoma): > 10 µM | TGI (SK-OV-3 ovarian): > 10 µM | TGI (SNB-75 CNS): 4.85 µM | TGI (KM12 colon): > 10 µM | TGI (HOP-62 NSCLC): > 10 µM | TGI (MDA-MB-435): > 10 µM | TGI (BT-549 breast): > 10 µM | TGI (NCI/ADR-RES ovarian): > 10 µM | TGI (NCI-H522 lung): > 10 µM | TGI (MDA-MB-231 breast): > 10 µM | TGI (PC-3 prostate): > 10 µM | TGI (SK-MEL-2 melanoma): > 10 µM | TGI (SF-268 CNS): > 10 µM | TGI (SK-MEL-28 melanoma): > 10 µM | TGI (NCI-H226 lung): > 10 µM | TGI (ACHN renal): > 10 µM | TGI (UO-31 renal): > 10 µM | TGI (RPMI-8226 leukemia): > 10 µM | TGI (DU-145 prostate): > 10 µM | TGI (OVCAR-3 ovarian): > 10 µM | TGI (LOX IMVI melanoma): > 10 µM | TGI (HS 578T breast): > 10 µM
